Broadly, the IC50 is the concentration at which inhibition is half-maximal.

The results in this text go back to US20260007684A1, “AMIDE DERIVATIVES FOR INHIBITING NLRP3 AND USES THEREOF” (Ventus Therapeutics U.S., Inc., priority 2023, published 2026).

For one test, the target named is human NLRP3 (Homo sapiens (Human), UniProt Q96P20). Nature of the test: Scintillation Proximity (SPA) NLRP3 Assay: displacement of 3H-MCC950. It counts as binding. The conditions noted are these: SPA IC50, displacement of 3H-MCC950. In general terms: SPA uses beads or plates that emit light when radiolabelled molecules are held near them.
Chain of human NLRP3 (Q96P20 whole entry): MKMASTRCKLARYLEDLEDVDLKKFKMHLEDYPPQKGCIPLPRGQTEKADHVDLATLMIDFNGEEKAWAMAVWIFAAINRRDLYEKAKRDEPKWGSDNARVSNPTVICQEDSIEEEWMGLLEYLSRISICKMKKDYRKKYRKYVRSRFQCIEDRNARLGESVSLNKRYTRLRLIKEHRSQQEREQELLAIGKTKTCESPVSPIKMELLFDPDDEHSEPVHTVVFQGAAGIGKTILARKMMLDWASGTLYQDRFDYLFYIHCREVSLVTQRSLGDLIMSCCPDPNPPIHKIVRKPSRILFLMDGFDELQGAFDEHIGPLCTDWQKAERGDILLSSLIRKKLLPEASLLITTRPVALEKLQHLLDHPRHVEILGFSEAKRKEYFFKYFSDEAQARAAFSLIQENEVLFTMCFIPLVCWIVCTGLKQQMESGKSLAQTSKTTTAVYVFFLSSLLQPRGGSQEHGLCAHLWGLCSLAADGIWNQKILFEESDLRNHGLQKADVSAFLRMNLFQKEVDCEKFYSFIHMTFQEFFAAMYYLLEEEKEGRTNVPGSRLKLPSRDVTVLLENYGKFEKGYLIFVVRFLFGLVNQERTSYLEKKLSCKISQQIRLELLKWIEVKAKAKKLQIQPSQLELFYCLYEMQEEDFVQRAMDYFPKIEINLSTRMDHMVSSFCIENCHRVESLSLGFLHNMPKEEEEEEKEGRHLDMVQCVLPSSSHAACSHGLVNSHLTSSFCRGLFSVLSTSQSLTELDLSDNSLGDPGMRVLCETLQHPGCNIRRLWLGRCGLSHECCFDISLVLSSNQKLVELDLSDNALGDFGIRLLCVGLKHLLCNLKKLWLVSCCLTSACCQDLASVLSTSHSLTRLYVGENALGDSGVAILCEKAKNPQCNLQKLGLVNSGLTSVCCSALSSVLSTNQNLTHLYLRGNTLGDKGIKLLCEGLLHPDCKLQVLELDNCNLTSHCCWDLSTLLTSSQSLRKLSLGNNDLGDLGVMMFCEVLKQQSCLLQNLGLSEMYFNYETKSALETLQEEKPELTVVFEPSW
`C[C@@H]1C[C@@H]2CC[C@H]([C@H](NC(=O)C3(c4ccc(C(F)(F)F)cc4)CC3)C1)N2c1nnn[nH]1` [104E*, N-((1R,2R,4S,6S)-4-methyl-9-(1H-tetrazol-5-yl)-9-azabicyclo[4.2.1]nonan-2-yl)-1-(4-(trifluoromethyl)phenyl)cyclopropane-1-carboxamide]: the IC50 was in the range of 10 to 50 µM. Regarding `O=C(N[C@H]1CCC[C@H]2CC[C@@H]1N2c1nnn[nH]1)C1(c2ccc(C(F)(F)F)cc2O)CC1` [88D*, N-((1S,2S,6S)-9-(1H-tetrazol-5-yl)-9-azabicyclo[4.2.1]nonan-2-yl)-1-(2-hydroxy-4-(trifluoromethyl)phenyl)cyclopropane-1-carboxamide], the IC50 lay within 1 to 10 µM. The same measure, in the same setting: the result for `O=C(NC1CCC[C@H]2CC[C@@H]1N2c1nnn[nH]1)C1(c2ccc(C3CC3)cc2O)CC1` (single isomer, unassigned) [93D*] reads 1 to 10 µM.

The same test, now with this note: displacement of 3H-MCC950; read-out: SPA IC50.
Regarding `C[C@H]1CCN(c2nnn[nH]2)C[C@@H](NC(=O)C2(c3ccc(Cl)cc3F)CC2)C1` (single isomer, unassigned) [56D*], the concentration for half-maximal inhibition (IC50) fell in the range of 10 to 50 µM. In the case of `C[C@H]1CCN(c2nnn[nH]2)C[C@H](NC(=O)C2(c3ccc(Cl)cc3)CC2)C1` (single isomer, unassigned) [12C*, 1-(4-chlorophenyl)-N-(5-methyl-1-(1H-tetrazol-5-yl)azepan-3-yl)cyclopropane-1-carboxamide], the IC50 is greater than 100 µM. With `C[C@H]1CCN(c2nnn[nH]2)C[C@H](NC(=O)C2(c3ccc(Cl)cc3F)CC2)C1` (single isomer, unassigned) [56C*], the concentration for half-maximal inhibition (IC50) fell in the range of 50 to 100 µM.

Regarding `Cc1ccc(C2(C(=O)N[C@@H]3C[C@H](C)[C@H]4CC[C@@H]3N4c3nnn[nH]3)CC2)cc1` [87C*, N-((1S,2R,4S,5R)-4-methy1-8-(1H-tetrazol-5-yl)-8-azabicyclo[3.2.1]octan-2-yl)-1-(p-tolyl)cyclopropane-1-carboxamide], the IC50 was greater than 100 µM. The same measure, in the same setting: the result for `C[C@H]1CCN(c2nnn[nH]2)C[C@H](NC(=O)C2(c3cc(F)c(C(F)(F)F)cc3F)CC2)C1` (single isomer, unassigned) [7C*, 1-(2,5-difluoro-4-(trifluoromethyl)phenyl)-N-(5-methyl-1-(1H-tetrazol-5-yl)azepan-3-yl)cyclopropane-1-carboxamide] reads 50 to 100 µM; that for `C[C@H]1C[C@@H](NC(=O)C2(c3ccc(OC(F)F)cc3O)CC2)[C@@H]2CC[C@H]1N2c1nnn[nH]1` [43C*, N-((1S,2R,4S,5R)-4-methy1-8-(1H-tetrazol-5-yl)-8-azabicyclo[3.2.1]octan-2-yl)-1-(4-(difluoromethoxy)-2-hydroxyphenyl)cyclopropane-1-carboxamide], greater than 100 µM. With `C[C@H]1CCN(c2nnn[nH]2)C[C@H](NC(=O)C2(c3ccc(C4CCC4)cc3)CC2)C1` (single isomer, unassigned) [8C*, 1-(4-cyclobutylphenyl)-N-(5-methyl-1-(1H-tetrazol-5-yl)azepan-3-yl)cyclopropane-1-carboxamide], the IC50 was 10 to 50 µM.

In the case of `C[C@H]1CCN(c2nnn[nH]2)C[C@@H](NC(=O)C2(c3ccc(OC(F)(F)F)cc3F)CC2)C1` (single isomer, unassigned) [64D*], the 50% inhibitory concentration (IC50) lay within 1 to 10 µM. In the case of `C[C@@H]1C[C@H](NC(=O)C2(c3ccc(C(F)(F)F)cc3F)CC2)[C@H]2CC[C@@H]1N2c1nnn[nH]1` [84B*, 1-(2-fluoro-4-(trifluoromethyl)phenyl)-N-((1R,2S,4R,5S)-4-methyl-8-(1H-tetrazol-5-yl)-8-azabicyclo[3.2.1]octan-2-yl)cyclopropane-1-carboxamide], the concentration for half-maximal inhibition (IC50) is 10 to 50 µM. Consider `C[C@H]1CCN(c2nnn[nH]2)C[C@H](NC(=O)C2(c3ccc(OC(F)(F)F)cc3O)CC2)C1` (single isomer, unassigned) [62C*], for which the IC50 lay within 1 to 10 µM. `C[C@@H]1C[C@H](NC(=O)C2(c3ccc(C(F)F)cc3)CC2)[C@H]2CC[C@@H]1N2c1nnn[nH]1` [86B*, 1-(4-(difluoromethyl)phenyl)-N-((1R,2S,4R,5S)-4-methyl-8-(1H-tetrazol-5-yl)-8-azabicyclo[3.2.1]octan-2-yl)cyclopropane-1-carboxamide]: the IC50 lay in the range of 10 to 50 µM. Turning to `C[C@H]1C[C@H](NC(=O)C2(c3ccc(C(F)(F)F)cc3)CC2)[C@@H]2CC[C@H]1N2c1nnn[nH]1` [79D*, N-((1S,2S,4S,5R)-4-methyl-8-(1H-tetrazol-5-yl)-8-azabicyclo[3.2.1]octan-2-yl)-1-(4-(trifluoromethyl)phenyl)cyclopropane-1-carboxamide], the concentration for half-maximal inhibition (IC50) fell in the range of 10 to 50 µM.

Take `C[C@H]1CCN(c2nnn[nH]2)C[C@@H](NC(=O)C2(c3ccc(OC(F)F)cc3F)CC2)C1` (single isomer, unassigned) [3D*]: the IC50 is 1 to 10 µM. `C[C@@H]1CCN(c2nnn[nH]2)C[C@@H]1NC(=O)C1(c2ccc(Cl)cc2)CC1` [Compound 49A, 1-(4-chlorophenyl)-N-[(3R,4R)-4-methy1-1-(1H-tetrazol-5-yl)-3-piperidyl]cyclopropanecarboxamide]: the 50% inhibitory concentration (IC50) was greater than 100 µM. As for `C[C@H]1CCN(c2nnn[nH]2)C[C@H](NC(=O)C2(c3ccc(Cl)nc3O)CC2)C1` (single isomer, unassigned) [100C*], the half-inhibitory concentration (IC50) is greater than 100 µM. Still for that read-out and setting: with `C[C@@H]1CC[C@H](NC(=O)C2(c3ccc(Cl)cc3O)CC2)CN(c2nnn[nH]2)C1` (single isomer, unassigned) [90D*] the figure was 1 to 10 µM. With `C[C@H]1C[C@@H](NC(=O)C2(c3ccc(OC(F)(F)F)cc3)CC2)[C@@H]2CC[C@H]1N2c1nnn[nH]1` [82C*, N-((1S,2R,4S,5R)-4-methyl-8-(1H-tetrazol-5-yl)-8-azabicyclo[3.2.1]octan-2-yl)-1-(4-(trifluoromethoxy)phenyl)cyclopropane-1-carboxamide], the half-maximal inhibitory concentration (IC50) was greater than 100 µM. For the molecule `C[C@@H]1CCN(c2nnn[nH]2)C[C@@H](NC(=O)C2(c3ccc(SC(F)(F)F)cc3)CC2)C1` (single isomer, unassigned) [69B*], the IC50 lay within 10 to 50 µM. As for `O=C(N[C@H]1CCCCCN(c2nnn[nH]2)C1)C1(c2ccc(Cl)cc2)CC1` (single isomer, unassigned) [14B*, N-(1-(1H-tetrazol-5-yl)azocan-3-yl)-1-(4-chlorophenyl)cyclopropane-1-carboxamide], the IC50 was in the range of 10 to 50 µM. Same read-out and setting: with `C[C@H]1[C@H](NC(=O)C2(c3ccc(Cl)cc3)CC2)CCCN1c1nnn[nH]1` [Compound 40C, 1-(4-chlorophenyl)-N-[(2S,3R)-2-methyl-1-(1H-tetrazol-5-yl)-3-piperidyl]cyclopropanecarboxamide] the figure was greater than 100 µM; with `C[C@H]1C[C@H](NC(=O)C2(c3ccc(OC(F)F)cc3O)CC2)[C@@H]2CC[C@H]1N2c1nnn[nH]1` [43D*, N-((1S,2S,4S,5R)-4-methy1-8-(1H-tetrazol-5-yl)-8-azabicyclo[3.2.1]octan-2-yl)-1-(4-(difluoromethoxy)-2-hydroxyphenyl)cyclopropane-1-carboxamide], 10 to 50 µM; with `C[C@H]1CCN(c2nnn[nH]2)C[C@@H](NC(=O)C2(c3ccc(C4CCC4)cc3)CC2)C1` (single isomer, unassigned) [8D*, 1-(4-cyclobutylphenyl)-N-(5-methyl-1-(1H-tetrazol-5-yl)azepan-3-yl)cyclopropane-1-carboxamide], 10 to 50 µM.
